Laboratory results: PMC11050087, “Polyphenols from Maackia amurensis Heartwood Protect Neuronal Cells from Oxidative Stress and Prevent Herpetic Infection” (International Journal of Molecular Sciences, 2024)
Where “and” joins values, the source holds several entries; their conditions need not be identical. Equal entries are not always repeated.

Experiments:
HSV-1 [1] = assay: Virucidal activity, CPE inhibition assay (HSV-1 pretreated with compounds); assay type: cell-based, HSV-1 strain L2
Procedure: The antiviral activity of polyphenols from M. amurensis against HSV-1 was assessed using the cytopathic effect inhibition (CPE) assay. To study the inhibitory effect of polyphenolic compounds directly on the HSV-1 virus (direct virucidal activity), the monolayer of Vero cells grown on 96-well plates (1 × 10^4 cells/well) was infected with the virus (100 TCD50/mL), pretreated with different concentrations of polyphenolic compounds.
(§1) The HSV-1 strain L2 obtained from N.F. Gamaleya Federal Research Centre for Epidemiology and Microbiology (Moscow, Russia) was grown in Vero cells as previously described.
(§2) We determined the direct inhibitory effect of polyphenolic compounds from M. amurensis heartwood on HSV-1 (virucidal effect). We mixed the virus at an infectious dose (100 TCID50/mL) with polyphenolic compounds (from 0.1 to 100 µg/mL) at a ratio of 1:1 (v/v) and incubated for an hour at 37 °C. Then, we infected the monolayer of Vero cells grown on 96-well plates (1 × 10^4 cells/well) with HSV-1 pretreated with the studied compounds. After 1 h adsorption at 37 °C, the cells were washed with phosphate-buffered saline (PBS) and overlaid by the maintenance medium with 1% FBS. The plates were incubated for 72 h at 37 °C in a CO2-incubator. The cytopathic effect (CPE) inhibition assay and real-time reverse transcription-PCR (RT-PCR) assay were used to evaluate virucidal effect of the tested compounds.
We previously described this method in detail in [22]. We performed the MTT assay to evaluate the antiviral activity of polyphenolic compounds. The viral inhibition rate (IR, %) was calculated according to Equation (1):(1) IR, %=Atv−Acv/Acd−Acv×100, where Atv is the absorbance of cells infected with HSV-1 pretreated with the studied compounds,
We calculated the selectivity index (SI) as the ratio of CC50 to IC50. Experiments were repeated three times.

[2] = tested on: 6-OHDA-treated Neuro-2a cells; assay: 6-OHDA-induced neurotoxicity model, cell viability test (MTT); assay type: cell-based, murine; conditions: compounds at 10, 1, 0.1 µM; 6-OHDA 100 µM
Procedure: Neuro-2a cells were incubated with the studied polyphenolic compounds for 1 h. Then, 100 µM of 6-hydroxydopamine 6-OHDA were added. We determined the percentage of living Neuro-2a cells after treatment with 6-OHDA (Figure 4a–d).
Figure 4 The effect of polyphenolic compounds isolated from M. amurensis heartwood on the viability of Neuro-2a cells treated with 6-OHDA (100 μM) (a–d). The viability of Neuro-2a cells treated with various compounds and 6-OHDA was measured by the MTT assay. Polyphenolic compounds isolated from M. amurensis heartwood were used at concentrations 10, 1, 0.1 μM. The data are presented as means ± SEM of three independent replicates. (*) indicate p < 0.05 versus 6-OHDA-treated cells.
After 24 h of adhesion, Neuro-2a cells (5 × 10^4 cells/mL) were treated with polyphenolic compounds at concentrations of 0.1, 1 and 10 μM for 1 h. Then, 100 µM of 6-OHDA or 1 mM of PQ (Sigma-Aldrich, St. Louis, MO, USA) were added. Cells incubated without inductors or with inductors were used as positive and negative control, respectively. Cell viability was measured after 24 h using the MTT assay.

HSV-1 [3] = assay: Virucidal activity, RT-PCR assay (HSV-1 pretreated with compounds); assay type: cell-based, HSV-1 strain L2; conditions: for Ct: 72 h; for −ΔCt: vs virus control
Procedure: Vero cells grown on 96-well plates were infected with the virus (100 TCID50/mL), pretreated with polyphenolic compounds at concentrations 0.1, 1 and 10 μg/mL. After 72 h of cell incubation, viral DNA was extracted from the supernatants, and the relative level of HSV-1 DNA was determined using RT-PCR. The effect of polyphenols on the relative level of viral DNA was assessed using the 2^−∆Ct method and reported as fold reduction compared to virus control.
as §1, §2
We performed the RT-PCR assay as we previously described in detail in [22]. Briefly, HSV-1 DNA was extracted after incubation from cell supernatants by using the DNA-sorb-AM (K1-12-100-CE) nucleic acid extraction kit (AmpliSens®, Moscow, Russia) according to the manufacturer′s instructions. We treated the supernatants with a lysis solution that contained guanidine chloride (chaotropic agent) in the presence of sorbent (silica particles). As the elution solution was added, the DNA was […] silica particles and separated from the sorbent particles by centrifugation.
We detected the DNA of HSV-1 in the obtained samples using the AmpliSens® HSV I, II-FRT-100F PCR kit (AmpliSens®, Moscow, Russia) on a real-time PCR instrument Rotor-Gene Q (Qiagen, Hilden, Nordrhein-Westfalen, Germany) according to the manufacturer′s instructions. The PCR reaction conditions were the following: initial denaturation at 95 °C for 15 min; then 5 cycles at 95 °C for 5 s, at 60 °C for 20 s, at 72 °C for 15 s; then 40 cycles at 95 °C for 5 s, at 60 °C for 20 s, and at 72 °C for 15 s. A negative sample was used as the amplification control for each run. The threshold cycle number Ct, was measured as the PCR cycle, where the amount of the amplified target reached the threshold value; the Ct values ≥ 37 indicated the absence of the HSV-1 DNA in the samples. We assessed the anti-HSV-1 activity of the studied compounds by the reduction in the viral DNA levels using the 2^−ΔCt method according to Equation (2):(2) ΔCt=Ctcv−Cttv where Ct is the threshold cycle number measured as the PCR cycle, where the amount of the amplified target reached the threshold value, […]

[4] = tested on: 6-OHDA-treated Neuro-2a cells; assay: ROS analysis in 6-OHDA-treated cells (H2DCF-DA); assay type: cell-based, murine; conditions: compound 1 µM; 6-OHDA 120 µM
Procedure: We studied the effect of polyphenolic compounds set on ROS levels in 6-OHDA-treated Neuro-2a cells (Figure 5a–d).
Figure 5 The effect of polyphenolic compounds isolated from M. amurensis heartwood on ROS levels in Neuro-2a cells treated with 6-OHDA (120 μM) (a–d). Polyphenolic compounds isolated from M. amurensis heartwood were used at concentrations 10, 1, 0.1 μM. The data are presented as means ± SEM of three independent replicates.
After 24 h of adhesion, Neuro-2a cells (5 × 10^4 cells/mL) were incubated with polyphenolic compounds at concentrations of 0.1, 1, and 10 µM for 1 h. Then, 120 µM of 6-OHDA or 1 mM of PQ were added to each well, and cells were incubated for 1 h. To study the ROS formation, 20 µL of 2,7-dichlorodihydrofluorescein diacetate solution (H2DCF-DA, Sigma-Aldrich, St. Louis, MO, USA) were added to each well, so that the final concentration was 10 µM. Then, the microplate was incubated for 30 min at 37 °C.

[5] = Cytotoxicity against Vero cells (MTT assay); assay type: cell-based; conditions: African green monkey
Procedure: We prepared the stock solutions of the tested compounds (10 mg/mL) in DMSO (Sigma, St. Louis, MO, USA). For the MTT assay and further studies of anti-HSV-1 activity, we diluted the stock solutions with DMEM so that the final concentration of DMSO was 0.5%.
We used MTT assay to determine the cytotoxic effect of the tested compounds against Vero cells. We performed the MTT assay as previously described.

[6] = Human alphaherpesvirus 1, 72 h, read-out: 2^−ΔCt
[7] = Human alphaherpesvirus 1, 72 h, read-out: log10

**Q.** Which IC50 (HSV-1 [1]; Human alphaherpesvirus 1, virus pretreated with compound (virucidal), CPE assay, Vero cells, 100 TCID50/mL) does the source give for `COc1ccc(-c2coc3c4c(ccc3c2=O)O[C@@H](c2cc(O)cc(O)c2)[C@H](c2ccc(O)c(O)c2)O4)cc1` [Compound 10, maackiazin] here?
**A.** 6.6 µg/mL and 12.5 µM

**Q.** What about the SI (HSV-1 [1]; ratio of CC50 to IC50, virucidal scheme) of the same molecule?
**A.** 23.7 ± 3.1

**Q.** And the “effect on viability of 6-OHDA-treated Neuro-2a cells (in words)” value [2]?
**A.** weak effect on cell viability

**Q.** And the Ct (HSV-1 [3]; 0.1 µg/mL)?
**A.** 18.4 ± 2.4

**Q.** And the “−ΔCt” value (HSV-1 [3]; 0.1 µg/mL)?
**A.** −0.300 ± 0.03

**Q.** What about the Ct (HSV-1 [3]; 1 µg/mL) of the same molecule?
**A.** 20.2 ± 2.6

**Q.** What about the “−ΔCt” value (HSV-1 [3]; 1 µg/mL) of the same molecule?
**A.** −2.1 ± 0.3

**Q.** And the “anti-HSV-1 activity by RT-PCR (in words)” value (HSV-1 [3]; 10 µg/mL)?
**A.** significantly reduced the level of viral DNA

**Q.** And the Ct (HSV-1 [3]; 10 µg/mL)?
**A.** 28.0 ± 3.9

**Q.** And the “−ΔCt” value (HSV-1 [3]; 10 µg/mL)?
**A.** −9.9 ± 1.1

**Q.** And the activity at 0.1 µg/mL (HSV-1 [3]; [6])?
**A.** 81.2 ± 11%

**Q.** And the activity at 1 µg/mL (HSV-1 [3]; [6])?
**A.** 23.3 ± 3%

**Q.** And the activity at 10 µg/mL (HSV-1 [3]; [6])?
**A.** 0.105 ± 0.01%

**Q.** And the log reduction at 0.1 µg/mL (HSV-1 [3]; [7])?
**A.** 0.09 ± 0.01

**Q.** What about the log reduction at 1 µg/mL (HSV-1 [3]; [7]) of the same molecule?
**A.** 0.6 ± 0.08

**Q.** And the log reduction at 10 µg/mL (HSV-1 [3]; [7])?
**A.** 2.9 ± 0.4

**Q.** And the “reduction of ROS levels in 6-OHDA-treated Neuro-2a cells” value [4]?
**A.** 20%

**Q.** What about the CC50 [5] of the same molecule?
**A.** 156 µg/mL and 297 µM
